{
  "source": "patent US20180185374A1",
  "about": "“INHIBITORS OF MTOR KINASE AS ANTI-VIRAL AGENTS” (THE TRUSTEES OF PRINCETON UNIVERSITY, priority 2009, published 2018)",
  "key": {"HCMV [1]": {"tested_on": "HCMV", "test": "HCMV entry: cell-associated viral DNA at 2 hpi by real-time PCR", "type": "cell-based, human cytomegalovirus", "details": "250 nM, 24 h pretreatment or after adsorption, 3 PFU/cell", "description": "FIG. 2. […] Serum-starved confluent fibroblasts were infected with HCMV at a multiplicity of 3 PFU/cell. […] Control cultures received the vehicle in which Torin1 was dissolved (NT). At 2 hpi cells were harvested, and cell-associated viral DNA was quantified by real-time PCR analysis. Error bars represent the standard errors of the means from two independent experiments performed in duplicate. […] The level of IE1 was determined at 6 hpi by a Western blot assay using an IE1-specific monoclonal antibody. The image is representative of two independent experiments. […] The expression of a GFP marker gene present in the viral genome was monitored at 24 h after infection in the presence or absence of drug.\nDetermination of viral DNA and transcript accumulation in infected cells. The accumulation of viral DNA during HCMV infection was monitored by quantitative PCR (qPCR) as described previously (Terhune, et al. (2007) J. Virol. 81:3109-3123).\nBriefly, primary human fibroblasts were infected with BADinGFP at a multiplicity of 0.05 PFU/cell. At the indicated times, cells were harvested by scraping them into medium and were stored as frozen cell pellets until analysis. Cell pellets were resuspended in 500 μl of a solution containing 400 mM NaCl, 10 mM Tris (pH 7.5), and 10 mM EDTA. […] For each sample, DNA was quantified by using a NanoDrop spectrophotometer (Thermo Scientific). […]"}, "4EBP1": {"tested_on": "4EBP1", "test": "4EBP1 phosphorylation in MCMV-infected MEFs, Western blot", "type": "cell-based, mouse", "details": "Torin1 250 nM", "description": "FIG. 5. […] Fresh serum-free medium containing drugs was added every other day. At the indicated times, cell-free supernatants were harvested, and the amount of virus in the supernatant was quantified by the TCID50 method. Error bars represent the standard errors of the means form two independent experiments performed in duplicate. […] At 48 hpi the phosphorylation state of the indicated mTORC1 targets was analyzed by a Western blot assay by using antibodies to phosphorylated targets (4EBP1-PT^37/46 and rpS6-PS^235/6) and total proteins. The results are representative of three independent experiments.\nFIG. 6. mTORC2 and its target, Akt, are not the source of rapamycin-resistant mTOR activity. […] At 6 days post infection the amount of MCMV in cell-free supernatants was determined by the TCID50 method. […] At 48 hpi, the phosphorylation state of mTORC1 targets was assessed by Western blotting using antibodies specific for the indicated proteins. (C) Confirmation of the genotype of Rictor-null MEFs. Total DNA was isolated from wild-type and Rictor-null MEFs, and the genotype was confirmed by use of PCR. (D) Same as above (A) except that Akt1- and Akt2-null MEFs were used. (E) Same as above (B) except that Akt1- and Akt2-null MEFs were used. For B and E, the error bars represent the standard errors of the means from at least two independent experiments, each performed in duplicate. For […], tubulin was assayed as a loading control. […] Protein from wild-type or mutant MEFs was analyzed by Western blotting by use of an antibody specific for Akt.\nThe identification of the functional roles of proteins in the mTOR signaling pathway has been facilitated by the generation of knockout mouse strains lacking individual mTOR components. […] Also as observed for HCMV (FIG. 4A), MCMV infection induced mTORC1 activity, as measured by the increased phosphorylation of rpS6. […]\nWe first investigated the requirement for mTORC2 for the replication of MCMV. […] Finally, that 4EBP1 was not detected in lysates of these cells by Western blot assay confirmed the phenotype of the MEFs."}, "HCMV [2]": {"tested_on": "HCMV", "test": "Torin1 drug release experiment, HCMV yield 16 days post infection by TCID50", "type": "cell-based, human cytomegalovirus", "details": "≤250 nM drug", "description": "FIG. 1. […] Serum-starved confluent human fibroblasts were infected with HCMV at a multiplicity of 0.05 PFU/cell. Cell-free virus was quantified by a TCID50 assay, and error bars represent the standard errors of the means from two independent experiments, each performed in duplicate. […] Supernatants were harvested every other day and replaced with fresh medium containing the appropriate treatment, and virus in the supernatant was assayed on the indicated days. […] Infected fibroblasts were treated with various doses of Torin1. Medium with drug was replaced every other day, and virus in the supernatant was assayed on day 8 post infection (black bars). On day 8, a second set of cultures was washed twice, serum-free medium containing no drug was added to each well, and virus was assayed after an additional 8 days (16 days post infection) (white bars).\nTo further confirm that the viral growth defect was not the result of cytotoxicity, we performed a drug release experiment. […] Eight days later, virus in the supernatant was quantified by the TCID50 method (16 days post infection) (FIG. 1B)."}},
  "data": [
    {"smiles": "CCC(=O)N1CCN(c2ccc(-n3c(=O)ccc4cnc5ccc(-c6cnc7ccccc7c6)cc5c43)cc2C(F)(F)F)CC1", "note": "[Torin1]", "values": [
      {"measurement": "level of cell-associated viral DNA", "setting": "HCMV [1]", "value": "not influenced"},
      {"measurement": "4EBP1 phosphorylation", "setting": "4EBP1; Akt1/Akt2-null MEFs", "value": "inhibited"},
      {"measurement": "4EBP1 phosphorylation", "setting": "4EBP1; Rictor-null MEFs, 48 hpi", "value": "effectively inhibited"},
      {"measurement": "phosphorylation of 4EBP1 in MCMV-infected MEFs", "setting": "4EBP1; wild-type MEFs, 48 hpi, rapamycin 20 nM, LY294002 20 μM", "value": "inhibited"},
      {"measurement": "increase in virus yield after reversal of 8-day treatment", "setting": "HCMV [2]", "value": "≥ 100", "unit": "fold"}
    ]}
  ]
}
